According to patent publication US20090311237A1, “Combination therapy using a soluble hyaluronidase and a bisphosphonate” (priority 2008, published 2009):
Read-outs that look alike come from different tables or passages of the source.

Assay: Pharmacokinetics of ZA in pig serum after IV or SC infusion with or without rHuPH20 (LC-MS-MS, non-compartmental analysis)
Format: in vivo
Conditions: female, Yorkshire, pig, serum, […]
Protocol: A pharmacokinetic study of zoledronic acid (ZA) co-administered with rHuPH20 in female Yorkshire swines was conducted. The primary objective of the study was to determine the bioavailability of zoledronic acid dosed via subcutaneous (SC) co-administration with human recombinant hyaluronidase PH20 (rHuPH20) and to compare the overall exposure to an equivalent IV dose.
Animals in Study Group 1 were dosed with 0.15 mg/kg ZA given via a 20-minute IV infusion. Animals in Study Groups 2 and 3 were dosed subcutaneously (SC) with 0.15 mg/kg ZA without and with rHuPH20, respectively, in different SC delivery volumes.
Following ZA dose administration, serial blood samples were collected via vascular access ports (VAPs) for serum preparation and determination of ZA concentrations. Blood collection times were at 1, 3, 5, 10, 15, 20, 30, 45, and 60 minutes, and at 1.5, 2, 3, 4, 6, 8, 10, 24, 48, and 72 hours post dose. Urine samples were also collected to compare excretion characteristics between IV and SC routes of administration. Collection times for urine were at 15 minutes before dosing (−15 min.), continuously from dose initiation to 2 hours post dose, and at 4, 6, 8, and 24 hours post dose thereafter.
Serum concentration of ZA was determined using a qualified LC-MS-MS assay after derivatization with diazomethane (Zhu, L S et al. (2006) Rapid Commun. Mass Spectrom. 20: 3421-3426; “Qualification Data of An LC-MS/MS Method for the Determination of Zoledronate in Porcine Serum”, MDS Pharma Services Study No. AA43671-01, Report Date 14 Sep. 2007). The assay range was from 2.0 to 400 ng/mL with a lower limit of quantitation (LLOQ) at 2.0 ng/mL. Urine concentration of ZA was determined by a similar well qualified LC-MS-MS method (“Qualification Data of An LC-MS/MS Method for the Determination of Zoledronate in Porcine Urine”, MDS Pharma Services Study No. AA43671-02, Report Date 14 Sep. 2007) with an assay LLOQ at 10 ng/mL.
Pharmacokinetic (PK) analyses of ZA serum concentration versus time data were conducted using WinNonlin v5.1 (Pharsight, Mountain View, Calif.). Non-compartmental analysis was used for derivation of primary and secondary pharmacokinetic (PK) parameters. AUC, Cmax, and Tmax were compared between dose routes, between co-administration with rHuPH20, and with dose of rHuPH20.

[1] = intravenous, animal ID 61, Study Group 1, IV 20 min infusion, ZA […], rHuPH20 0 U/mL, read-out: Zoledronic Acid Serum Concentration
[2] = intravenous, animal ID 67, Study Group 1, IV 20 min infusion, ZA […], rHuPH20 0 U/mL, read-out: Zoledronic Acid Serum Concentration

SMILES: O=P(O)(O)C(O)(Cn1ccnc1)P(=O)(O)O [ZA, 1-hydroxy-2-(1H-imidazol-1-yl)ethylidene-1,1-bisphosphonic acid]
- concentration at 2 h [1]: 18.8 ng/mL
- concentration at 3 h [1]: 6.1 ng/mL
- concentration at 4 h [1]: 3.3 ng/mL
- concentration at 0.05 h (intravenous, animal ID 67, Study Group 1, IV 20 min infusion, ZA […], rHuPH20 0 U/mL, time 0.05 h, read-out: Zoledronic Acid Serum Concentration): 288 ng/mL
- concentration at 0.333 h (intravenous, animal ID 67, Study Group 1, IV 20 min infusion, ZA […], rHuPH20 0 U/mL, time 0.333 h, read-out: Zoledronic Acid Serum Concentration): 556 ng/mL
- concentration at 0.5 h (intravenous, animal ID 67, Study Group 1, IV 20 min infusion, ZA […], rHuPH20 0 U/mL, time 0.5 h, read-out: Zoledronic Acid Serum Concentration): 246 ng/mL
- concentration at 1 h (intravenous, animal ID 67, Study Group 1, IV 20 min infusion, ZA […], rHuPH20 0 U/mL, time 1 h, read-out: Zoledronic Acid Serum Concentration): 77.8 ng/mL
- concentration at 2 h [2]: 16.6 ng/mL
- concentration at 3 h [2]: 6.67 ng/mL
- concentration at 4 h [2]: 3.35 ng/mL
- clearance (iv, absolute clearance by non-compartmental analysis of the IV dose (from Table 13), used for Study Groups 2 and 3, read-out: Serum CL (converted)): 7.34 mL/min/kg
- clearance (iv, ZA […] 20-min IV infusion, individual pigs 57, 61, 67, read-out: CL (converted)): 6.76 mL/min/kg
- Tmax (iv, ZA […] 20-min IV infusion, individual pigs 57, 61, 67, read-out: Tmax): 15 min
- half-life (iv, ZA […] 20-min IV infusion, individual pigs 57, 61, 67, read-out: T½ λz (converted)): 37.8 min
- Vd (iv, ZA […] 20-min IV infusion, individual pigs 57, 61, 67, read-out: Vss): 0.104 L/kg
- Vd (iv, ZA […] 20-min IV infusion, individual pigs 57, 61, 67, read-out: Vz): 0.371 L/kg
- clearance (iv, ZA […] 20-min IV infusion, n=3, read-out: CL, mean (converted)): 7.34 mL/min/kg
- clearance (iv, ZA […] 20-min IV infusion, n=3, read-out: CL, median (converted)): 7.36 mL/min/kg
- Tmax (iv, ZA […] 20-min IV infusion, n=3, read-out: Tmax, mean): 15 min
- Tmax (iv, ZA […] 20-min IV infusion, n=3, read-out: Tmax, median): 15 min
- half-life (iv, ZA […] 20-min IV infusion, n=3, read-out: T½ λz, mean (converted)): 43.2 ± 4.8 min
- half-life (iv, ZA […] 20-min IV infusion, n=3, read-out: T½ λz, median (converted)): 44.4 min
- Vd (iv, ZA […] 20-min IV infusion, n=3, read-out: Vss, mean): 0.123 L/kg
- Vd (iv, ZA […] 20-min IV infusion, n=3, read-out: Vss, median): 0.131 L/kg
- Vd (iv, ZA […] 20-min IV infusion, n=3, read-out: Vz, mean): 0.458 ± 0.0759 L/kg
- Vd (iv, ZA […] 20-min IV infusion, n=3, read-out: Vz, median): 0.498 L/kg
- CL/F (sc, pig 59, SC ZA […], 100 mL over 16 min, no rHuPH20, read-out: CL/F (converted)): 7.97 mL/min/kg
- Tmax (sc, pig 59, SC ZA […], 100 mL over 16 min, no rHuPH20, read-out: Tmax): 20 min
- half-life (sc, pig 59, SC ZA […], 100 mL over 16 min, no rHuPH20, read-out: T½ λz (converted)): 66 min
- Vd/F (sc, pig 59, SC ZA […], 100 mL over 16 min, no rHuPH20, read-out: Vss/F): 0.617 L/kg
- Vd/F (sc, pig 59, SC ZA […], 100 mL over 16 min, no rHuPH20, read-out: Vz/F): 0.76 L/kg
- CL/F (sc, pig 60, SC ZA […], 100 mL over 16 min, no rHuPH20, read-out: CL/F (converted)): 6.97 mL/min/kg
- bioavailability (sc, pig 60, SC ZA […], 100 mL over 16 min, no rHuPH20, read-out: SC Bioavailability (0-1 h)): 55.5%
- bioavailability (sc, pig 60, SC ZA […], 100 mL over 16 min, no rHuPH20, read-out: SC Bioavailability (0-8 h)): 105%
- Tmax (sc, pig 60, SC ZA […], 100 mL over 16 min, no rHuPH20, read-out: Tmax): 20 min
- half-life (sc, pig 60, SC ZA […], 100 mL over 16 min, no rHuPH20, read-out: T½ λz (converted)): 52.2 min
- Vd/F (sc, pig 60, SC ZA […], 100 mL over 16 min, no rHuPH20, read-out: Vss/F): 0.526 L/kg
- Vd/F (sc, pig 60, SC ZA […], 100 mL over 16 min, no rHuPH20, read-out: Vz/F): 0.524 L/kg
- CL/F (sc, pig 62, SC ZA […], 50 mL over 8 min, no rHuPH20, read-out: CL/F (converted)): 10.2 mL/min/kg
- bioavailability (sc, pig 62, SC ZA […], 50 mL over 8 min, no rHuPH20, read-out: SC Bioavailability (0-1 h)): 54%
- bioavailability (sc, pig 62, SC ZA […], 50 mL over 8 min, no rHuPH20, read-out: SC Bioavailability (0-8 h)): 71.9%
- Tmax (sc, pig 62, SC ZA […], 50 mL over 8 min, no rHuPH20, read-out: Tmax): 10 min
- half-life (sc, pig 62, SC ZA […], 50 mL over 8 min, no rHuPH20, read-out: T½ λz (converted)): 58.2 min
- Vd/F (sc, pig 62, SC ZA […], 50 mL over 8 min, no rHuPH20, read-out: Vss/F): 0.634 L/kg
- Vd/F (sc, pig 62, SC ZA […], 50 mL over 8 min, no rHuPH20, read-out: Vz/F): 0.852 L/kg
- CL/F (sc, pig 69, SC ZA […], 25 mL over 4 min, no rHuPH20, read-out: CL/F (converted)): 9.28 mL/min/kg
- bioavailability (sc, pig 69, SC ZA […], 25 mL over 4 min, no rHuPH20, read-out: SC Bioavailability (0-1 h)): 56.9%
- bioavailability (sc, pig 69, SC ZA […], 25 mL over 4 min, no rHuPH20, read-out: SC Bioavailability (0-8 h)): 78.8%
- Tmax (sc, pig 69, SC ZA […], 25 mL over 4 min, no rHuPH20, read-out: Tmax): 10 min
- half-life (sc, pig 69, SC ZA […], 25 mL over 4 min, no rHuPH20, read-out: T½ λz (converted)): 60.6 min
- Vd/F (sc, pig 69, SC ZA […], 25 mL over 4 min, no rHuPH20, read-out: Vss/F): 0.652 L/kg
- Vd/F (sc, pig 69, SC ZA […], 25 mL over 4 min, no rHuPH20, read-out: Vz/F): 0.811 L/kg
- CL/F (sc, pig 70, SC ZA […], 10 mL over 1.6 min, no rHuPH20, read-out: CL/F (converted)): 7.69 mL/min/kg
- bioavailability (sc, pig 70, SC ZA […], 10 mL over 1.6 min, no rHuPH20, read-out: SC Bioavailability (0-1 h)): 66.5%
- bioavailability (sc, pig 70, SC ZA […], 10 mL over 1.6 min, no rHuPH20, read-out: SC Bioavailability (0-8 h)): 95.1%
- Tmax (sc, pig 70, SC ZA […], 10 mL over 1.6 min, no rHuPH20, read-out: Tmax): 10 min
- half-life (sc, pig 70, SC ZA […], 10 mL over 1.6 min, no rHuPH20, read-out: T½ λz (converted)): 85.2 min
- Vd/F (sc, pig 70, SC ZA […], 10 mL over 1.6 min, no rHuPH20, read-out: Vss/F): 0.615 L/kg
- Vd/F (sc, pig 70, SC ZA […], 10 mL over 1.6 min, no rHuPH20, read-out: Vz/F): 0.947 L/kg
- CL/F (sc, SC ZA […], no rHuPH20 (Study Group 2), n=4, read-out: CL/F, mean (converted)): 8.52 mL/min/kg
- CL/F (sc, SC ZA […], no rHuPH20 (Study Group 2), n=4, read-out: CL/F, median (converted)): 8.48 mL/min/kg
- bioavailability (sc, SC ZA […], no rHuPH20 (Study Group 2), n=4, read-out: SC Bioavailability (0-1 h), mean): 58.2%
- bioavailability (sc, SC ZA […], no rHuPH20 (Study Group 2), n=4, read-out: SC Bioavailability (0-1 h), median): 56.2%
